Source: the NIST ThermoML archive (doi:10.1016/j.fluid.2009.03.017)
Numbers after ± are expanded uncertainties.

What was measured:
[1] = refractive index (Na D-line) (dimensionless); conditions: 293.1 K; 101.33 kPa; Liquid; Standard Abbe refractometry
[2] = 298.1 K; 101.33 kPa; Liquid; Vibrating tube method

Row | refractive index [1] | mass density [2] | SMILES
1 | 1.422 ± 0.0007 | 1025.9 ± 0.1 kg/m3 | C1COCCO1 [1,4-dioxane]
2 | 1.4416 ± 0.0007 | 766.8 ± 0.2 kg/m3 | C=CC(C)CCC=C(C)C (centres undefined) [3,7-dimethyl-1,6-octadiene]
